Source: US10435369B2, “Tricyclic sulfones as ROR gamma modulators” (BRISTOL-MYERS SQUIBB COMPANY, priority 2016, dated 2019)
pIC50: −log10 of the molar value. Like-named read-outs stand apart in the source and are kept apart here.

Target: RORγ receptor (Homo sapiens, UniProt P51449)
Assay: RORγ Gal4 reporter assay (Gal4-luciferase, inverse agonist activity)
Assay type: cell-based
Method: General RORγ Gal4 Reporter Assay
IC50 values were determined.

[1] = Jurkat cells stably over-expressing hRORγ, Gal4-luciferase reporter, overnight incubation, read-out: RORγ Gal4, IC50

RORγ receptor, sequence (P51449 269-508): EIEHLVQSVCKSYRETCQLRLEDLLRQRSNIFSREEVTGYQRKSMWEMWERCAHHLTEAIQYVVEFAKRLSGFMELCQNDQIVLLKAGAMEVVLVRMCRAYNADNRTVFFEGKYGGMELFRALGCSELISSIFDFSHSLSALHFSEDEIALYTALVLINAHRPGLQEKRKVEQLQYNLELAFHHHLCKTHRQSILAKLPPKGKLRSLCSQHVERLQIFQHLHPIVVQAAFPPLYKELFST

`CNC(=O)CN[C@@H]1CC[C@@]2(S(=O)(=O)c3ccc(F)cc3)c3ccc(C(F)(C(F)(F)F)C(F)(F)F)cc3CC[C@@H]12` [Example 208, 2-(((3R,3 aS,9bS)-9b-((4-fluorophenyl)sulfonyl)-7-(perfluoropropan-2-yl)-2,3,3a,4,5,9b-hexahydro-1H-cyclopenta[a]naphthalen-3-yl)amino)-N-methylacetamide] was tested, and the pIC50 was 7.80.
`CNC(=O)CN(CC(=O)NC)[C@@H]1CC[C@@]2(S(=O)(=O)c3ccc(F)cc3)c3ccc(C(F)(C(F)(F)F)C(F)(F)F)cc3CC[C@@H]12` [Example 209, 2,2′-(((3R,3aS,9bS)-9b-((4-fluorophenyl)sulfonyl)-7-(perfluoropropan-2-yl)-2,3,3a,4,5,9b-hexahydro-1H-cyclopenta[a]naphthalen-3-yl)azanediyl)bis(N-methylacetamide)] was tested, and the pIC50 [1] was 6.78.
Compound `CN(C)[C@@H]1CC[C@@]2(S(=O)(=O)c3ccc(F)cc3)c3ccc(C(F)(C(F)(F)F)C(F)(F)F)cc3CC[C@@H]12` [Example 212] has a pIC50 [1] of 6.80.
With `CC(C)(O)CC(=O)N[C@@H]1CC[C@@]2(S(=O)(=O)c3ccc(F)cc3)c3ccc(C(F)(C(F)(F)F)C(F)(F)F)cc3NC[C@@H]12` [Example 221] the pIC50 [1] was 7.35.
`CC(C)(O)CN1C(=O)CCN1C(=O)N[C@@H]1CC[C@@]2(S(=O)(=O)c3ccc(F)cc3)c3ccc(C(F)(C(F)(F)F)C(F)(F)F)cc3CC[C@@H]12` [Example 229, N-((3R,3aS,9bS)-9b-((4-fluorophenyl)sulfonyl)-7-(perfluoropropan-2-yl)-2,3,3a,4,59b-hexahydro-1H-cyclopenta[a]naphthalen-3-yl)-2-(2-hydroxy-2-methylpropyl)-3-oxopyrazolidin-1-carboxamide] showed a pIC50 [1] of 8.30.
`[2H]C([2H])([2H])C(=O)N1CC(O)(CC(=O)N[C@@H]2CC[C@@]3(S(=O)(=O)c4ccc(F)cc4)c4ccc(C(F)(C(F)(F)F)C(F)(F)F)cc4CC[C@@H]23)C1` [Example 231, 2-(1-(acetyl-d3)-3-hydroxyazetidin-3-yl)-N-((3R,3aS,9bS)-9b-((4-fluorophenyl)sulfonyl)-7-(perfluoropropan-2-yl)-2,3,3a,4,5,9b-hexahydro-1H-cyclopenta[a]naphthalen-3-yl)acetamide] was tested, and the pIC50 was 7.19.
Compound `O=C1OCCN1[C@@H]1CC[C@@]2(S(=O)(=O)c3ccc(F)cc3)c3ccc(C(F)(C(F)(F)F)C(F)(F)F)cc3CC[C@@H]12` [Example 240, 3-((3R,3aS,9bS)-9b-((4-fluorophenyl)sulfonyl)-7-(perfluoropropan-2-yl)-2,3,3a,4,5,9b-hexahydro-1H-cyclopenta[a]naphthalen-3-yl)oxazolidin-2-one] has a pIC50 [1] of 8.05.
`O=C(CO)N1CCC(O)(C(=O)N[C@@H]2CC[C@@]3(S(=O)(=O)c4ccc(F)cc4)c4ccc(C(F)(C(F)(F)F)C(F)(F)F)cc4CC[C@@H]23)CC1` [Example 256] was tested, and the pIC50 [1] was 8.40.
`CC(NC(=O)c1c[nH]cn1)[C@@H]1CC[C@@]2(S(=O)(=O)c3ccc(F)cc3)c3ccc(C(F)(C(F)(F)F)C(F)(F)F)cc3CC[C@@H]12` (stereo partly shown) [Example 257] was tested, and the pIC50 [1] was 7.57.
`CC(NC(=O)c1ccncn1)[C@@H]1CC[C@@]2(S(=O)(=O)c3ccc(F)cc3)c3ccc(C(F)(C(F)(F)F)C(F)(F)F)cc3CC[C@@H]12` (stereo partly shown) [Example 261] gave a pIC50 [1] of 7.47.
`CC(NC(=O)c1ccncn1)[C@@H]1CC[C@@]2(S(=O)(=O)c3ccc(F)cc3)c3ccc(C(F)(C(F)(F)F)C(F)(F)F)cc3CC[C@@H]12` (stereo partly shown) [Example 262] showed a pIC50 [1] of 7.06.
`CC(NC(=O)c1ccncc1)[C@@H]1CC[C@@]2(S(=O)(=O)c3ccc(F)cc3)c3ccc(C(F)(C(F)(F)F)C(F)(F)F)cc3CC[C@@H]12` (stereo partly shown) [Example 263] gave a pIC50 [1] of 7.66.
`CC(NC(=O)c1ccncc1)[C@@H]1CC[C@@]2(S(=O)(=O)c3ccc(F)cc3)c3ccc(C(F)(C(F)(F)F)C(F)(F)F)cc3CC[C@@H]12` (stereo partly shown) [Example 264] showed a pIC50 [1] of 7.09.
Compound `CC(NC(=O)[C@@H]1C[C@@H](F)C(=O)N1)[C@@H]1CC[C@@]2(S(=O)(=O)c3ccc(F)cc3)c3ccc(C(F)(C(F)(F)F)C(F)(F)F)cc3CC[C@@H]12` (stereo partly shown) [Example 267] has a pIC50 [1] of 7.82.
For `CC(NC(=O)[C@@H]1C[C@@H](F)C(=O)N1)[C@@H]1CC[C@@]2(S(=O)(=O)c3ccc(F)cc3)c3ccc(C(F)(C(F)(F)F)C(F)(F)F)cc3CC[C@@H]12` (stereo partly shown) [Example 268], the pIC50 [1] was 7.68.
With `CC(NC(=O)[C@H](C)N)[C@@H]1CC[C@@]2(S(=O)(=O)c3ccc(F)cc3)c3ccc(C(F)(C(F)(F)F)C(F)(F)F)cc3CC[C@@H]12` (stereo partly shown) [Example 271] the pIC50 [1] was 7.35.
`CC(NS(=O)(=O)c1cnn(C)c1)[C@@H]1CC[C@@]2(S(=O)(=O)c3ccc(F)cc3)c3ccc(C(F)(C(F)(F)F)C(F)(F)F)cc3CC[C@@H]12` (stereo partly drawn) [Example 272, N-(1-((3R,3aS,9bS)-9b-((4-fluorophenyl)sulfonyl)-7-(perfluoropropan-2-yl)-2,3,3a,4,5,9b-hexahydro-1H-cyclopenta[a]naphthalen-3-yl)ethyl)-1-methyl-1H-pyrazole-4-sulfonamide] was tested, and the pIC50 [1] was 7.57.
For `CC(NS(=O)(=O)c1cnn(C)c1)[C@@H]1CC[C@@]2(S(=O)(=O)c3ccc(F)cc3)c3ccc(C(F)(C(F)(F)F)C(F)(F)F)cc3CC[C@@H]12` (stereo partly shown) [Example 273], the pIC50 [1] was 7.59.
Work on `CC(NS(=O)(=O)c1nc[nH]n1)[C@@H]1CC[C@@]2(S(=O)(=O)c3ccc(F)cc3)c3ccc(C(F)(C(F)(F)F)C(F)(F)F)cc3CC[C@@H]12` (stereo partly shown) [Example 274] yielded a pIC50 [1] of 7.21.
`CC(NS(=O)(=O)c1nc[nH]n1)[C@@H]1CC[C@@]2(S(=O)(=O)c3ccc(F)cc3)c3ccc(C(F)(C(F)(F)F)C(F)(F)F)cc3CC[C@@H]12` (stereo partly shown) [Example 275] was tested, and the pIC50 [1] was 7.19.
Work on `CS(=O)(=O)N[C@H]1C[C@H](NC(=O)[C@@H]2CC[C@@]3(S(=O)(=O)c4ccc(F)cc4)c4ccc(C(F)(C(F)(F)F)C(F)(F)F)cc4CC[C@@H]23)C1` [Example 276] yielded a pIC50 [1] of 7.28.
`CS(=O)(=O)N1CCC(CNC(=O)[C@@H]2CC[C@@]3(S(=O)(=O)c4ccc(F)cc4)c4ccc(C(F)(C(F)(F)F)C(F)(F)F)cc4CC[C@@H]23)C1` (stereo partly shown) [Example 277] gave a pIC50 [1] of 8.22.
`CS(=O)(=O)N1CCC(CNC(=O)[C@@H]2CC[C@@]3(S(=O)(=O)c4ccc(F)cc4)c4ccc(C(F)(C(F)(F)F)C(F)(F)F)cc4CC[C@@H]23)C1` (stereo partly shown) [Example 278] was tested, and the pIC50 [1] was 8.15.
With `CS(=O)(=O)N1CC(O)(CNC(=O)[C@@H]2CC[C@@]3(S(=O)(=O)c4ccc(F)cc4)c4ccc(C(F)(C(F)(F)F)C(F)(F)F)cc4CC[C@@H]23)C1` [Example 279] the pIC50 [1] was 7.72.
For `NS(=O)(=O)N[C@H]1C[C@@H](NC(=O)[C@@H]2CC[C@@]3(S(=O)(=O)c4ccc(F)cc4)c4ccc(C(F)(C(F)(F)F)C(F)(F)F)cc4CC[C@@H]23)C1` [Example 280, (3R,3aS,9bS)-9b-((4-fluorophenyl)sulfonyl)-7-(perfluoropropan-2-yl)-N-((1s,3S)-3-(sulfamoylamino)cyclobutyl)-2,3,3a,4,5,9b-hexahydro-1H-cyclopenta[a]naphthalene-3-carboxamide], the pIC50 [1] was 7.66.
With `NS(=O)(=O)N[C@H]1C[C@@H](NC(=O)[C@@H]2CC[C@@]3(S(=O)(=O)c4ccc(F)cc4)c4ccc(C(F)(C(F)(F)F)C(F)(F)F)cc4CC[C@@H]23)C1` [Example 281] the pIC50 [1] was 7.24.
Compound `O=C(N[C@@H]1CC[C@@]2(S(=O)(=O)c3ccc(F)cc3)c3ccc(C(F)(C(F)(F)F)C(F)(F)F)cc3CC[C@@H]12)C1(F)CCS(=O)(=O)CC1` [Example 298, 4-fluoro-N-((3R,3aS,9bS)-9b-((4-fluorophenyl)sulfonyl)-7-(perfluoropropan-2-yl)-2,3,3a,4,5,9b-hexahydro-1H-cyclopenta[a]naphthalen-3-yl)tetrahydro-2H-thiopyran-4-carboxamide 1,1-dioxide] has a pIC50 [1] of 8.15.
In the case of `O=C(N[C@@H]1CC[C@@]2(S(=O)(=O)c3ccc(F)cc3)c3ccc(C(F)(C(F)(F)F)C(F)(F)F)cc3CC[C@@H]12)C1=CCS(=O)(=O)CC1` [Example 299, N-((3R,3aS,9bS)-9b-((4-fluorophenyl)sulfonyl)-7-(perfluoropropan-2-yl)-2,3,3a,4,5,9b-hexahydro-1H-cyclopenta[a]naphthalen-3-yl)-3,6-dihydro-2H-thiopyran-4-carboxamide 1,1-dioxide], the pIC50 was 8.30.
